Source: patent US20240287076A1, “COMPOUNDS FOR TARGETING DEGRADATION OF BRUTON'S TYROSINE KINASE” (BIOGEN MA INC., priority 2021, published 2024)

Target: T1, BTK (Homo sapiens, UniProt Q06187)
T1 construct: The GM01501.3 cell line endogenously expresses BTK with a HiBiT fusion tag via CRISPR knock-in at its C-terminal region; endogenous in cells; host or cells: GM01501.3 (GM01501 cells engineered by CRISPR knock-in of HiBiT at the BTK locus)
Experiment: BTK degradation assay using the HiBiT Method (Nano-Glo HiBiT Lytic Assay, GM01501.3 cells)
Assay type: cell-based
Details: HiBiT Degradation on GM01501.3 BTK @ 6 hours
Method in brief: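 Degradation read-out: HiBiT luminescence after lytic reagent addition, giving DC50. Compounds dosed from 10 μM in 11 half-log steps (duplicate) onto GM01501.3 cells, whose endogenous BTK carries a C-terminal HiBiT knock-in tag; 6 h exposure, 37 °C, 5% CO2.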

T1 sequence (Q06187 whole entry, the tested form may be a part): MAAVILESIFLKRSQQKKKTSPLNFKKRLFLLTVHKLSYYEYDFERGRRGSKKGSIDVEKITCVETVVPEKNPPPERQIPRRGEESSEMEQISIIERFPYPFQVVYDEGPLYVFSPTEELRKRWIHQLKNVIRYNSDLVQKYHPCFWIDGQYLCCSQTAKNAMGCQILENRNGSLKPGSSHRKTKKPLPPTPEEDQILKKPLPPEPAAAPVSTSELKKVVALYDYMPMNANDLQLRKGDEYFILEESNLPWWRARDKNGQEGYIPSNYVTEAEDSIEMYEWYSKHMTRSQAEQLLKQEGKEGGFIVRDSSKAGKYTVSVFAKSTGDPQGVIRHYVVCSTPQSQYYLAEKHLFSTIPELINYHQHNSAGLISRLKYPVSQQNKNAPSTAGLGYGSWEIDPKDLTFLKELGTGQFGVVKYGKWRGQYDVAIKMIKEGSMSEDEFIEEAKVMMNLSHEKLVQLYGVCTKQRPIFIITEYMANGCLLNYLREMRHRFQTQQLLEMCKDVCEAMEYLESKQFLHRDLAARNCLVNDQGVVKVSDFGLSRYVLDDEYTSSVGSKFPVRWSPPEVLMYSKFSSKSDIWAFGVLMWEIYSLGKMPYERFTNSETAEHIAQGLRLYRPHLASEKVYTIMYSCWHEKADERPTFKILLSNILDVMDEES

DC50, < 100 nM:
Cc1cc(-c2ncnn3cc(-c4ccc(CN5CCC(c6ccc(NC7CCC(=O)NC7=O)cc6)CC5)cc4)cc23)ccc1CNC(=O)c1ccc(C(C)C)nc1 (stereo not drawn) [Example 69, N-[[4-[6-[4-[[4-[4-[(2,6-dioxo-3-piperidyl)amino]phenyl]-1-piperidyl]methyl]phenyl]pyrrolo[2,1-f][1,2,4]triazin-4-yl]-2-methyl-phenyl]methyl]-6-isopropyl-pyridine-3-carboxamide]
Cc1cc(-c2ncnn3cc(-c4ccc(CN5CCC(c6ccc(NC7CCC(=O)NC7=O)cc6)CC5)cc4)cc23)ccc1CNC(=O)COCC(C)(C)C (stereo not drawn) [Example 70, 2-(2,2-dimethylpropoxy)-N-[[4-[6-[4-[[4-[4-[(2,6-dioxo-3-piperidyl)amino]phenyl]-1-piperidyl]methyl]phenyl]pyrrolo[2,1-f][1,2,4]triazin-4-yl]-2-methyl-phenyl]methyl]acetamide]
Cc1cc(-c2ncnn3cc(-c4ccc(CN5CCC(c6ccc(NC7CCC(=O)NC7=O)cc6)CC5)cc4)cc23)ccc1CNC(=O)c1cc2c(s1)CCCC2 (stereo not drawn) [Example 71, N— [[4-[6-[4-[[4-[4-[(2,6-dioxo-3-piperidyl)amino]phenyl]-1-piperidyl]methyl]phenyl]pyrrolo[2,1-f][1,2,4]triazin-4-yl]-2-methyl-phenyl]methyl]-4,5,6,7-tetrahydrobenzothiophene-2-carboxamide]
Cc1cc(-c2ncnn3cc(-c4ccc(CN5CCC(c6ccc(NC7CCC(=O)NC7=O)cc6)CC5)cc4)cc23)ccc1CNC(=O)c1ccc(C(C)(F)F)cc1 (stereo not drawn) [Example 72, 4-(1,1-difluoroethyl)-N-[[4-[6-[4-[[4-[4-[(2,6-dioxo-3-piperidyl)amino]phenyl]-1-piperidyl]methyl]phenyl]pyrrolo[2,1-f][1,2,4]triazin-4-yl]-2-methyl-phenyl]methyl]benzamide]
Cc1cc(-c2ncnn3cc(-c4ccc(CN5CCC(c6ccc(NC7CCC(=O)NC7=O)cc6)CC5)cc4)cc23)ccc1CNC(=O)c1ccc(C(F)(F)F)cc1 (stereo not drawn) [Example 73, N-[[4-[6-[4-[[4-[4-[(2,6-dioxo-3-piperidyl)amino]phenyl]-1-piperidyl]methyl]phenyl]pyrrolo[2,1-f][1,2,4]triazin-4-yl]-2-methyl-phenyl]methyl]-4-(trifluoromethyl)benzamide]
Cc1cc(-c2ncnn3cc(-c4ccc(CN5CCC(c6ccc(NC7CCC(=O)NC7=O)cc6)CC5)cc4)cc23)ccc1CNC(=O)CCCC(C)(C)C (stereo not drawn) [Example 74, N-[[4-[6-[4-[[4-[4-[(2,6-dioxo-3-piperidyl)amino]phenyl]-1-piperidyl]methyl]phenyl]pyrrolo[2,1-f][1,2,4]triazin-4-yl]-2-methyl-phenyl]methyl]-5,5-dimethyl-hexanamide]
Cc1cc(-c2ncnn3cc(-c4ccc(CN5CCC(c6ccc(NC7CCC(=O)NC7=O)cc6)CC5)cc4)cc23)ccc1CNC(=O)C12CC(C(C)(C)C)(C1)C2 (stereo not drawn) [Example 75, 3-tert-butyl-N-[[4-[6-[4-[[4-[4-[(2,6-dioxo-3-piperidyl)amino]phenyl]-1-piperidyl]methyl]phenyl]pyrrolo[2,1-f][1,2,4]triazin-4-yl]-2-methyl-phenyl]methyl]bicyclo[1.1.1]pentane-1-carboxamide]
Cc1cc(-c2ncnn3cc(-c4ccc(CN5CCC(c6ccc(NC7CCC(=O)NC7=O)cc6)CC5)cc4)cc23)ccc1CNC(=O)c1ncc(C(C)C)cc1F (stereo not drawn) [Example 76, N-[[4-[6-[4-[[4-[4-[(2,6-dioxo-3-piperidyl)amino]phenyl]-1-piperidyl]methyl]phenyl]pyrrolo[2,1-f][1,2,4]triazin-4-yl]-2-methyl-phenyl]methyl]-3-fluoro-5-isopropyl-pyridine-2-carboxamide]
Cc1cc(-c2ncnn3cc(-c4ccc(CN5CCC(c6ccc(NC7CCC(=O)NC7=O)cc6)CC5)cc4)cc23)ccc1CNC(=O)c1cc2ccccc2s1 (stereo not drawn) [Example 77, N-[[4-[6-[4-[[4-[4-[(2,6-dioxo-3-piperidyl)amino]phenyl]-1-piperidyl]methyl]phenyl]pyrrolo[2,1-f][1,2,4]triazin-4-yl]-2-methyl-phenyl]methyl]benzothiophene-2-carboxamide]
Cc1cc(-c2ncnn3cc(-c4ccc(CN5CCC(c6ccc(NC7CCC(=O)NC7=O)cc6)CC5)cc4)cc23)ccc1CNC(=O)c1coc(C(C)(C)C)n1 (stereo not drawn) [Example 78, 2-tert-butyl-N-[[4-[6-[4-[[4-[4-[(2,6-dioxo-3-piperidyl)amino]phenyl]-1-piperidyl]methyl]phenyl]pyrrolo[2,1-f][1,2,4]triazin-4-yl]-2-methyl-phenyl]methyl]oxazole-4-carboxamide]
Cc1cc(-c2ncnn3cc(-c4ccc(CN5CCC(c6ccc(NC7CCC(=O)NC7=O)cc6)CC5)cc4)cc23)ccc1CNC(=O)c1nc(C(C)(C)C)no1 (stereo not drawn) [Example 79, 3-tert-butyl-N-[[4-[6-[4-[[4-[4-[(2,6-dioxo-3-piperidyl)amino]phenyl]-1-piperidyl]methyl]phenyl]pyrrolo[2,1-f][1,2,4]triazin-4-yl]-2-methyl-phenyl]methyl]-1,2,4-oxadiazole-5-carboxamide]
Cc1cc(-c2ncnn3cc(-c4ccc(CN5CCC(c6ccc(NC7CCC(=O)NC7=O)cc6)CC5)cc4)cc23)ccc1CNC(=O)c1nc(C(C)(C)C)co1 (stereo not drawn) [Example 80, 4-tert-butyl-N-[[4-[6-[4-[[4-[4-[(2,6-dioxo-3-piperidyl)amino]phenyl]-1-piperidyl]methyl]phenyl]pyrrolo[2,1-f][1,2,4]triazin-4-yl]-2-methyl-phenyl]methyl]oxazole-2-carboxamide]
Cc1cc(-c2ncnn3cc(-c4ccc(CN5CCC(c6ccc(NC7CCC(=O)NC7=O)cc6)CC5)cc4)cc23)ccc1CNC(=O)CCC(C)(C)C (stereo not drawn) [Example 81, N-[[4-[6-[4-[[4-[4-[(2,6-dioxo-3-piperidyl)amino]phenyl]-1-piperidyl]methyl]phenyl]pyrrolo[2,1-f][1,2,4]triazin-4-yl]-2-methyl-phenyl]methyl]-4,4-dimethyl-pentanamide]
Cc1cc(-c2ncnn3cc(-c4ccc(CN5CCC(c6ccc(NC7CCC(=O)NC7=O)cc6)CC5)cc4)cc23)ccc1CNC(=O)c1cnc(C(C)(C)C)cn1 (stereo not drawn) [Example 82, 5-tert-butyl-N-[[4-[6-[4-[[4-[4-[(2,6-dioxo-3-piperidyl)amino]phenyl]-1-piperidyl]methyl]phenyl]pyrrolo[2,1-f][1,2,4]triazin-4-yl]-2-methyl-phenyl]methyl]pyrazine-2-carboxamide]
Cc1cc(-c2ncnn3cc(-c4ccc(CN5CCC(c6ccc(NC7CCC(=O)NC7=O)cc6)CC5)cc4)cc23)ccc1CNC(=O)c1cc(C(C)(C)C)on1 (stereo not drawn) [Example 83, -tert-butyl-N-[[4-[6-[4-[[4-[4-[(2,6-dioxo-3-piperidyl)amino]phenyl]-1-piperidyl]methyl]phenyl]pyrrolo[2,1-f][1,2,4]triazin-4-yl]-2-methyl-phenyl]methyl]isoxazole-3-carboxamide]
Cc1cc(-c2ncnn3cc(-c4ccc(CN5CCC(c6ccc(NC7CCC(=O)NC7=O)cc6)CC5)cc4)cc23)ccc1CNC(=O)c1ccc(C(C)(C)C)cc1 (stereo not drawn) [Example 84, 4-tert-butyl-N-[[4-[6-[4-[[4-[4-[(2,6-dioxo-3-piperidyl)amino]phenyl]-1-piperidyl]methyl]phenyl]pyrrolo[2,1-f][1,2,4]triazin-4-yl]-2-methyl-phenyl]methyl]benzamide]
Cc1cc(-c2ncnn3cc(-c4ccc(CN5CCC(c6ccc(NC7CCC(=O)NC7=O)cc6)CC5)cc4)cc23)ccc1CNC(=O)c1cnc(C(C)(C)C)o1 (stereo not drawn) [Example 85, 2-tert-butyl-N-[[4-[6-[4-[[4-[4-[(2,6-dioxo-3-piperidyl)amino]phenyl]-1-piperidyl]methyl]phenyl]pyrrolo[2,1-f][1,2,4]triazin-4-yl]-2-methyl-phenyl]methyl]oxazole-5-carboxamide]
Cc1cc(-c2ncnn3cc(-c4ccc(CN5CCC(c6ccc(NC7CCC(=O)NC7=O)cc6)CC5)cc4)cc23)ccc1CNC(=O)c1ncc(C(C)(C)C)o1 (stereo not drawn) [Example 86, 5-tert-butyl-N-[[4-[6-[4-[[4-[4-[(2,6-dioxo-3-piperidyl)amino]phenyl]-1-piperidyl]methyl]phenyl]pyrrolo[2,1-f][1,2,4]triazin-4-yl]-2-methyl-phenyl]methyl]oxazole-2-carboxamide]
Cc1ccc(C(=O)NCc2ccc(-c3ncnn4cc(-c5ccc(CN6CCC(c7ccc(NC8CCC(=O)NC8=O)cc7)CC6)cc5)cc34)cc2C)nc1 (stereo not drawn) [Example 87, N-[[4-[6-[4-[[4-[4-[(2,6-dioxo-3-piperidyl)amino]phenyl]-1-piperidyl]methyl]phenyl]pyrrolo[2,1-f][1,2,4]triazin-4-yl]-2-methyl-phenyl]methyl]-5-methyl-pyridine-2-carboxamide]
Cc1cc(-c2ncnn3cc(-c4ccc(CN5CCC(c6ccc(NC7CCC(=O)NC7=O)cc6)CC5)cc4)cc23)ccc1CNC(=O)c1ccc(C(F)(F)F)cn1 (stereo not drawn) [Example 88, N-[[4-[6-[4-[[4-[4-[(2,6-dioxo-3-piperidyl)amino]phenyl]-1-piperidyl]methyl]phenyl]pyrrolo[2,1-f][1,2,4]triazin-4-yl]-2-methyl-phenyl]methyl]-5-(trifluoromethyl)pyridine-2-carboxamide]
Cc1cc(-c2ncnn3cc(-c4ccc(CN5CCC(c6ccc(NC7CCC(=O)NC7=O)cc6)CC5)cc4)cc23)ccc1CNC(=O)c1ccc(C(C)C)cn1 (stereo not drawn) [Example 89, N-[[4-[6-[4-[[4-[4-[(2,6-dioxo-3-piperidyl)amino]phenyl]-1-piperidyl]methyl]phenyl]pyrrolo[2,1-f][1,2,4]triazin-4-yl]-2-methyl-phenyl]methyl]-5-isopropyl-pyridine-2-carboxamide]
